This note sets out measurements from patent publication US11771738B2 (Zoetis Services LLC, priority 2018, dated 2023).

Holding throughout (type): cell-based
Experiment [1] concerns microfilariae of Dirofilaria immitis. Description: Dirofilaria immitis, Microfilaria (DiMf) In Vitro Assay. Conditions: Dirofilaria immitis, 72 h, read-out: DiMf MED, Minimum Effective Dose, D. immitis microfilariae motility, in vitro.
The next experiment has as its system D. immitis L4 larvae. The experiment in a line: Dirofilaria immitis, L4 Stage (DiL4) In Vitro Assay. Conditions: for minimal effective concentration: Dirofilaria immitis, 72 h, read-out: DiL4 MED, Minimum Effective Dose, D. immitis L4 larvae motility, in vitro; for DiMf/DiL4: larval stage selectivity, ratio of DiMf MED to DiL4 MED.
For experiment [2], the system named is third stage larvae of Haemonchus contortus. Description: Haemonchus contortus, Larvae Stage 3 (HcL3) In Vitro Assay. The following applies: Haemonchus contortus, 96 h.
Setting [3] is: read-out: HcL3 MED, Haemonchus contortus third stage larvae in vitro, class mark appended to the Ex # in Table 3.
Where [4] appears, read: read-out: HcL3 MED, Minimum Effective Dose, H. contortus third stage larvae, approximately 96 hours.
Setting [5] is: read-out: HcL3 MED, approximately 96 hours incubation, multiple-resistant field isolate.

Molecules are shown by their SMILES. Read-outs that look alike come from different tables or passages of the source. Bounds are passed on as bounds.

`CCc1ncncc1Cc1ccc(C[C@H]2OC(=O)[C@H](CC(C)C)N(C)C(=O)[C@@H](C)OC(=O)[C@H](CC(C)C)N(C)C(=O)[C@@H](Cc3ccc(Cc4cncnc4CC)cc3)OC(=O)[C@H](CC(C)C)N(C)C(=O)[C@@H](C)OC(=O)[C@H](CC(C)C)N(C)C2=O)cc1` [Example 3-310, (3S,6R,9S,12R,15S,18R,21S,24R)-6,18-bis(4-((4-ethylpyrimidin-5-yl)methyl)benzyl)-3,9,15,21-tetraisobutyl-4,10,12,16,22,24-hexamethyl-1,7,13,19-tetraoxa-4,10,16,22-tetraazacyclotetracosan-2,5,8,11,14,17,20,23-octaone]: the minimal effective concentration in experiment [1] was 0.0003 µM; in the experiment on D. immitis L4 larvae, 0.001 µM; in experiment [2] (setting [3]), under 1 µM; in experiment [2] (setting [4]), 1 µM; in experiment [2] (setting [5]), at most 1 µM. In addition, in the experiment on D. immitis L4 larvae, the DiMf/DiL4 stood at 0.3.

With `CC(C)C[C@H]1C(=O)O[C@H](Cc2ccc(Cc3cccc(F)n3)cc2)C(=O)N(C)[C@@H](CC(C)C)C(=O)O[C@H](C)C(=O)N(C)[C@@H](CC(C)C)C(=O)O[C@H](Cc2ccc(Cc3cccc(F)n3)cc2)C(=O)N(C)[C@@H](CC(C)C)C(=O)O[C@H](C)C(=O)N1C` [Example 3-313, (3S,6R,9S,12R,15S,18R,21S,24R)-6,18-bis(4-((6-fluoropyridin-2-yl)methyl)benzyl)-3,9,15,21-tetraisobutyl-4,10,12,16,22,24-hexamethyl-1,7,13,19-tetraoxa-4,10,16,22-tetraazacyclotetracosan-2,5,8,11,14,17,20,23-octaone], the minimal effective concentration in experiment [1] was found to be 0.003 µM; in the experiment on D. immitis L4 larvae it was 0.00055 µM; in experiment [2] (setting [4]), 0.55 µM. Further, the DiMf/DiL4 with D. immitis L4 larvae was found to be 5.5.

Consider `CC(C)C[C@H]1C(=O)O[C@H](Cc2ccc(Cc3cncnc3C(F)(F)F)cc2)C(=O)N(C)[C@@H](CC(C)C)C(=O)O[C@H](C)C(=O)N(C)[C@@H](CC(C)C)C(=O)O[C@H](Cc2ccc(Cc3cncnc3C(F)(F)F)cc2)C(=O)N(C)[C@@H](CC(C)C)C(=O)O[C@H](C)C(=O)N1C` [Example 3-318, (3S,6R,9S,12R,15S,18R,21S,24R)-3,9,15,21-tetraisobutyl-4,6,10,16,18,22-hexamethyl-12,24-bis(4-((4-(trifluoromethyl)pyrimidin-5-yl)methyl)benzyl)-1,7,13,19-tetraoxa-4,10,16,22-tetraazacyclotetracosan-2,5,8,11,14,17,20,23-octaone], for which the minimal effective concentration in experiment [1] came to 0.0003 µM; in the experiment on D. immitis L4 larvae, 3e-05 µM; in experiment [2] (setting [4]), 0.55 µM. The DiMf/DiL4 in the experiment with D. immitis L4 larvae came to 10.

For the compound `CC(C)C[C@H]1C(=O)O[C@H](Cc2ccc(Cc3cccnc3Cl)cc2)C(=O)N(C)[C@@H](CC(C)C)C(=O)O[C@H](C)C(=O)N(C)[C@@H](CC(C)C)C(=O)O[C@H](Cc2ccc(Cc3cccnc3Cl)cc2)C(=O)N(C)[C@@H](CC(C)C)C(=O)O[C@H](C)C(=O)N1C` [Example 3-319, (3S,6R,9S,12R,15S,18R,21S,24R)-6,18-bis(4-((2-chloropyridin-3-yl)methyl)benzyl)-3,9,15,21-tetraisobutyl-4,10,12,16,22,24-hexamethyl-1,7,13,19-tetraoxa-4,10,16,22-tetraazacyclotetracosan-2,5,8,11,14,17,20,23-octaone], the minimal effective concentration was 0.00173 µM in experiment [1]; 5.5e-05 µM in the experiment with D. immitis L4 larvae; under 1 µM in experiment [2] (setting [3]); 0.55 µM in experiment [2] (setting [4]); at most 1 µM in experiment [2] (setting [5]). For the same compound, in the experiment on D. immitis L4 larvae, the DiMf/DiL4 came to 31.5.
